Results as given in patent publication US20130273096A1, “Therapeutic Sulfated Polysaccharides, Compositions Thereof, and Methods for Treating Patients” (priority 2011, published 2013).

How the values were obtained:
HCAEC monolayers [1] = test: Water flux through HCAEC monolayers; assay type: cell-based, human; settings: FIG. 8
HCAEC monolayers [2] = test: Heparan sulfate immunostaining of HCAEC monolayers; assay type: cell-based, human; settings: 1004/mL for 24 hrs; confocal microscope; FIG. 9
Description: HCAEC monolayers were incubated with RS#1 at 1004/mL for 24 hrs and immunostaining for heparan sulfate was performed. The monolayers were then imaged using a laser scanning confocal microscope. One control and one RS#1-treated monolayers were stained and four representative fields from each case were imaged. In control monolayers, heparan sulfate immunostaining seemed to be concentrated on the cell-cell junction area (FIG. 9A).

[3] = tested on: human coronary artery endothelial cells (HCAEC); test: LDL permeability of HCAEC monolayers; assay type: cell-based; settings: 12.5 to 12004/mL, 24 hrs to 5 day, FIGS. 6 and 7
Description: To test whether any of the RS isoforms could inhibit apoptosisn in human coronary artery endothelial cells (HCAEC), the HCAEC (human coronary artery endothelial cell) monolayers were incubated with each of two isoforms, RS#1 or RS#2, at concentrations ranging from 12.5 to 12004/mL for a period of time ranging from 24 hrs to 5 day, before the permeability of LDL (low density lipoprotein) was measured. In addition, some monolayers were induced to undergo apoptosis with TNF-α/CHX in the presence or absence of RS#1 or RS#2 and the permeability of LDL was measured. As shown in the figure, Dil means 11′-dioctadecyl-3,3-3′,3′-tetramethylindo-carbocyanide perchlorate. […] When the monolayers were induced to undergo apoptosis the permeability increased by ˜2-3-fold.

endothelial cells (EC) = test: Disaccharide analysis of heparan sulfate synthesized by endothelial cells; assay type: cell-based; settings: EC exposed to RS vs control cell fraction; FIG. 4
Description: Purified heparin sulfate (HS) from the endothelial cells (EC) exposed or not exposed to RS #2 were incubated with a mixture of heparin lyases (heparinase I and II, 2.5 mlU each, available from Sigma) and the disaccharides produced by the enzymatic action were separated on a Phenosphere SAX column (Phenomenex, Torrance, Calif., USA) 150×4.6 mm using a NaCl gradient of 0-1 M in 30 min with a flux of 1 mL/min. Individual fractions (0.5 mL) were collected and counted using a micro-beta counter. […] The abbreviations used in the figure are: GlcNS(6S)=2-deoxy-6-O-sulfo-2-(sulfoamino)-α-D-glucopyranoside; GlcA=β-D-glucopyranuronosyl; GlcNS(3S,6S)=2-deoxy-3,6-di-O-sulfo-2-(sulfoamino)-α-D-glucopyranosyl; IdoA(2S)=2-O-sulfo-α-L-idopyranuronosyl; and, GlcNS(6S)OMe=methyl-O-2-deoxy-6-O-sulfo-2-(sulfoamino)-α-D-glucopyranoside.
As for the heparin stimulus, the HS produced by these cells have more of heparin sequences [-4) IdoA2S(1-4)GlcNS,6S] (heparin's basic structure). […] Counting from the left, the RS-induced heparans are chains of disaccharide pairs like sugar groups number 4-5 hooked together. Additionally, the major fraction of stimulated heparan sulfate produced are tri-sulfated discaccharides (Iodo2S-GlcNS,6S), typical of the major sequence in heparin.

endothelial cells = test: Heparan sulfate (HS) stimulus experiment; assay type: cell-based; settings: vs control; FIG. 10
Description: A heparin sulfate (HS) stimulus experiment was performed as known in the art, using the four RS isoforms described herein. […] While the results shown here are limited to the RS isoforms studied, the type of polysaccharides to which this applies can be expanded to other classes of compounds that likely have similar effects, such as PUFAs, non-sulfated PS, other polymers, and the like. These RS (and other similar acting substances found in nature) can be used for in vivo HS and GAG production instead of administering HS or other GAGS for therapeutic effect.

Substance	decrease of water flux through HCAEC monolayers (HCAEC monolayers [1])	coverage of heparan sulfate on HCAEC monolayers (immunostaining) (HCAEC monolayers [2])	reduction of LDL permeability of control monolayers [3]	heparin sequences composed of the tri-sulfated disaccharide (ΔU2S-GlcNS,6S) in HS synthesized by EC (endothelial cells (EC))	cellular HS content (cellular fraction of heparans) (endothelial cells)
L-arginine (L-Arg) salt of rhamnan sulfate [RS #1]	~50%	increased the coverage	5 fold		
rhamnan sulfate [RS #2]	~20%		5 fold	significant increase	
rhamnan sulfate [RS #3]					no change
